Laboratory results: article doi:10.1101/819920v2 (biorxiv, 2020)

Molecular target: YegI (Escherichia coli, UniProt Q8X7J8)
Assay: biochemical

Chain of YegI (Q8X7J8 whole entry): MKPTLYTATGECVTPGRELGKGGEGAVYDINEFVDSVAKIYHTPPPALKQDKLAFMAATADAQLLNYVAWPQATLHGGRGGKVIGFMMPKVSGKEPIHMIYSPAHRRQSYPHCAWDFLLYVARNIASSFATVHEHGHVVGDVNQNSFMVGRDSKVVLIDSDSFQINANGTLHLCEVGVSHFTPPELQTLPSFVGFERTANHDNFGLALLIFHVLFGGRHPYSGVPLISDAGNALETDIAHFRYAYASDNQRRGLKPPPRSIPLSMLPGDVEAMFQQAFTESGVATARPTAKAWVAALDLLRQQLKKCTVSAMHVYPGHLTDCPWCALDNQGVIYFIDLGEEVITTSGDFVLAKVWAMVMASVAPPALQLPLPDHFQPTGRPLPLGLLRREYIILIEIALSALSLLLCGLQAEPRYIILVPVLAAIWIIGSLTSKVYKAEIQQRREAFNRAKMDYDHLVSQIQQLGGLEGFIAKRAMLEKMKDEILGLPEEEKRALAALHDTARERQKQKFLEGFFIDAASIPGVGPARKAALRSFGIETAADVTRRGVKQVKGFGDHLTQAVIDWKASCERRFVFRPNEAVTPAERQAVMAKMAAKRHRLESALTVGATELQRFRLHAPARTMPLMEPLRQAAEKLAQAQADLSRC

CN[C@@H]1C[C@H]2O[C@@](C)([C@@H]1OC)n1c3ccccc3c3c4c(c5c6ccccc6n2c5c31)C(=O)NC4 [staurosporine]
IC50: ~50 µM
